Values of other authors, collected in patent US11318113B2, “Compounds for the treatment of diseases linked to mitochondrial reactive oxygen species (ROS) production” (OP2 DRUGS, priority 2015, dated 2022).

Tested on: complex I
Conditions: Orr et al., 2013; cited from earlier work

O=[N+]([O-])c1ccc(Oc2ccc(S(=O)(=O)NC3CCCCC3)cc2)cc1 [N-cyclohexyl-4-(4-nitrophenoxy) benzenesulfonamide]
activity of complex I as a component of the respiratory chain and oxidative phosphorylation: does not modify
